Source: patent US20100112040A1, “Preparation of Heavy Metal-Containing Nano-Liposomes and their Uses in Medical Therapy” (S.B. BIOTECHNOLOGIES LTD., priority 2006, published 2010)
Where two headings read alike, the source gives them in different places.

Tests used:
[1] = 200 μl i.p. of 2 mg/ml gold, 24 hours
Experimental: (§1) Balb/C mice which had tumors on their thighs (KHJJ line, breast cancer) were used in these experiments. The mice were injected i.p. with 200 μl of liposomes containing 2 mg of gold atoms per/ml solution, and after 24 hours the animals were dissected and various internal organs were harvested, which included the tumor, brain, heart, lungs, spleen, liver, kidneys, and blood. The organs were rinsed and prepared for ICP-MS analysis. In control experiments, mice were injected with a solution containing 2 mg of gold/ml without confinement in liposomes.
1. A solution of gold chloride of 2 mg/ml (2000). The gold was not confined in liposomes. 2. A gold-containing liposome solution (2000) of gold content of 2 mg/ml.

[2] = 200 μl i.p., 2 mg of gold/ml
Experimental: as §1

## [Cl][Au]([Cl])[Cl] [gold chloride solution, gold chloride]
[1]; Bladder
  Gold atoms per cell: 1.30E+10 atoms per cell
[1]; Blood
  Gold atoms per cell: 1.37E+08 atoms per cell
[1]; Brain
  Gold atoms per cell: 1.62E+07 atoms per cell
[1]; Heart
  Gold atoms per cell: 1.63E+09 atoms per cell
[1]; Kidneys
  Gold atoms per cell: 1.58E+09 atoms per cell
[1]; Liver
  Gold atoms per cell: 1.88E+08 atoms per cell
[1]; Lungs
  Gold atoms per cell: 1.36E+08 atoms per cell
[1]; Spleen
  Gold atoms per cell: 3.34E+08 atoms per cell
[1]; Tumor
  Gold atoms per cell: 1.10E+08 atoms per cell
[2]
  survival of injected mice (toxicity of gold): died after 24 hours
